Format in all cases: cell-based
The test system of one experiment is fibronectin. Kind of experiment: Specific labeling of fibronectin in human fibroblast cultures (epifluorescence). The conditions noted are these: human dermal fibroblasts; peptide 0.5%, 1% and/or 3% (stock solution 40 mg/kg); 24, 48 and/or 72 hours; vs control. The method, then:
(§1) The objective of this study is to determine the influence of the peptides SEQ ID NO: 4 and NO: 5 and the peptide SEQ ID NO: 4 on the expression of the following extracellular matrix proteins: collagen I, collagen III, pro-collagen, fibronectin and hyaluronic acid in human fibroblasts. For this, specific labelings were performed on normal human fibroblast cultures obtained from the dermis.
(§2) Human fibroblasts in culture are treated with the peptide SEQ ID NO: 5 or the peptide SEQ ID NO: 4 at a final concentration of 0.5%, 1% and/or 3% (based on a stock solution at 40 mg/kg), for 24, 48 and/or 72 hours. The cells are then washed, fixed with cold methanol for 4 minutes at 4° C. (for the collagen I, collagen III and hyaluronic acid labelings) or with formaldehyde at 3.7% for 10 minutes at room temperature (for the pro-collagen and fibronectin labelings). The cells are incubated in the presence of a specific rabbit collagen I polyclonal antibody (Rockland, Ref: 600-401-103-0.5), a specific rabbit collagen III polyclonal antibody (Rockland, Ref: 600-401-105-0.5), a specific rat pro-collagen polyclonal antibody (Millipore, Ref: MAB1912), a specific rabbit fibronectin polyclonal antibody (Sigma, Ref: F-3648), then an anti-rabbit secondary antibody coupled with a fluorochrome (Invitrogen, Ref: A21206) or anti-rat coupled with a fluorochrome (Invitrogen, A11006). […]

In experiment [1] the test system is pro-collagen. As to the kind of experiment: Specific labeling of pro-collagen in human fibroblast cultures (epifluorescence). The conditions noted are these: human dermal fibroblasts; peptide 0.5%, 1% and/or 3% (stock solution 40 mg/kg); 24, 48 and/or 72 hours; vs control. The method, then:
as §1, §2

Experiment [2] relates to hyaluronic acid. Kind of experiment: Specific labeling of hyaluronic acid in human fibroblast cultures (epifluorescence). The conditions noted are these: human dermal fibroblasts; peptide 0.5%, 1% and/or 3% (stock solution 40 mg/kg); 24, 48 and/or 72 hours; vs control. The protocol: as §1, §2
For experiment [3], the system named is collagen III. Kind of experiment: Specific labeling of collagen III in human fibroblast cultures (epifluorescence). The conditions noted are these: human dermal fibroblasts; peptide 0.5%, 1% and/or 3% (stock solution 40 mg/kg); 24, 48 and/or 72 hours; vs control. The protocol: as §1, §2
Experiment [4] deals with collagen I. Kind of experiment: Specific labeling of collagen I in human fibroblast cultures (epifluorescence). The conditions noted are these: human dermal fibroblasts; peptide 0.5%, 1% and/or 3% (stock solution 40 mg/kg); 24, 48 and/or 72 hours; vs control. The method, then:
as §1, §2

Experiment [5] relates to collagen I. Kind of experiment: Collagen I immunolabeling in human skin samples cultivated ex vivo. The conditions noted are these: topical 0.5%, 1% or 3% (stock solution 40 mg/kg), 24, 48 and/or 72 hours. The protocol: (§3) The objective of this study is to determine the influence of the peptide SEQ ID NO: 5 on the expression of the following extracellular matrix proteins: collagen I, collagen III, pro-collagen, fibronectin and hyaluronic acid in the human skin. For this, specific labelings were performed on human skin samples cultivated ex vivo.
(§4) Human skin samples are placed in culture at the air/liquid interface. The peptide SEQ ID NO: 5 is applied topically on the samples at final concentrations of 0.5%, 1% or 3%, (using a stock solution at 40 mg/kg) then the samples are incubated for 24, 48 and/or 72 hours at 37° C.
(§5) These skin samples are then fixed with formaldehyde then embedded in paraffin or fixed and embedded in OCT then frozen at −20° C. Sections with a thickness of 4 μm are then produced (6 μm for cold sections).
(§6) The labelings of the collagen I and the collagen III, on the samples embedded in paraffin, are performed after unmasking specific sites. The immunolabelings are performed using a specific rabbit collagen I polyclonal antibody (Rockland, Ref: 600-401-103-0.5), a specific rabbit collagen III polyclonal antibody (Rockland, Ref: 600-401-105-0.5), then an anti-rabbit secondary antibody coupled with a fluorochrome (Invitrogen, Ref: A21206). […]

Experiment [6] deals with collagen III. As to the kind of experiment: Collagen III immunolabeling in human skin samples cultivated ex vivo. The conditions noted are these: topical 0.5%, 1% or 3% (stock solution 40 mg/kg), 24, 48 and/or 72 hours. The protocol:
as §3, §4, §5, §6

The test system of experiment [7] is hyaluronic acid. As to the kind of experiment: Hyaluronic acid labeling in human skin samples cultivated ex vivo. The conditions noted are these: topical 0.5%, 1% or 3% (stock solution 40 mg/kg), 24, 48 and/or 72 hours. The method, then:
as §3, §4, §5, §6

For another experiment, the system named is P16. As to the kind of experiment: Expression of senescence marker P16 in human fibroblasts (immunolabeling). The conditions noted are these: 0.5% and 1% (stock solution 40 mg/kg), 48 hours. The protocol:
The objective of this study is to determine the influence of the peptide SEQ ID NO: 5 on the expression of P16, a protein of which the expression in the skin increases with age. P16 is a protein involved in the negative regulation of the cellular cycle, which has been described as a reliable marker of cellular senescence (Brookes S. et al. Experimental Cell Research 298, 2004).
Human fibroblasts in culture are treated with the peptide SEQ ID NO: 5 at final concentrations of 0.5% and 1% (using a stock solution at 40 mg/kg) for 48 hours. The cells are prepared according to the Shandon Cytoblock® Cell preparation system kit (Thermo Scientific, Ref: 7401150).
The cells are then fixed with formaldehyde then embedded in paraffin. Sections of 4 μm are then produced. The labeling of p16 on the cells embedded in paraffin is performed after unmasking the specific sites. The immunolabelings are performed using a specific mouse p16 polyclonal antibody (Santa-Cruz, Ref: sc-81157), then an anti-mouse secondary antibody coupled with a fluorochrome (Invitrogen, Ref: A21202). The cells are then examined under the epifluorescence microscope (Nikon Eclipse E600 microscope).

The subject of experiment [8] is Collagen I messenger RNAs. Kind of experiment: Expression of collagen I messenger RNAs by real-time PCR in human fibroblasts. The conditions noted are these: 0.5% and 1% (stock solution 40 mg/kg), 24, 48 and 72 hours, comparative Ct method, 18S control. The method, then:
The objective of this study is to determine the influence of the peptide SEQ ID NO: 5 on the expression of collagen I messenger RNAs in the human fibroblasts. For this, the expression of collagen I was studied by real-time PCR.
Human fibroblasts in culture are treated with the peptide SEQ ID NO: 5 at final concentrations of 0.5% and 1% (using a stock solution at 40 mg/kg) for 24, 48 and 72 hours. The total RNAs are extracted using an extraction kit (QIAGEN), then reverse transcribed with a specific kit containing RNase inhibitors (Applied Biosystems). A real-time PCR is performed in a thermocycler using a specific Collagen I TaqMan Gene Expression Assay (Applied Biosystem, […]) and a specific 18S TaqMan Gene Expression Assay used as an endogenous control (Applied Biosystem, […]). The relative quantification of the expression of the Collagen I messenger RNAs is performed by the comparative Ct method (the Ct, the threshold cycle, is the intersection between the amplification curve and the threshold line).
For orientation: In qPCR the cycle at which signal appears reflects the starting amount.

For experiment [9], the system named is pro-collagen. Kind of experiment: Pro-collagen immunolabeling in human skin samples cultivated ex vivo. The conditions noted are these: topical 0.5%, 1% or 3% (stock solution 40 mg/kg), 24, 48 and/or 72 hours. The method, then: as §3, §4, §5
The immunolabeling of the pro-collagen, on the samples embedded in OCT, is performed after fixing for 10 minutes with cold acetone. The immunolabeling is performed using a specific rat pro-collagen polyclonal antibody (Millipore, Ref: MAB 1912) then an anti-rat secondary antibody, coupled with a fluorescent marker (Invitrogen, A11006).
The cells are then examined under the epifluorescence microscope (Nikon Eclipse E600 microscope).

For experiment [10], the system named is senescent fibroblasts (β-galactosidase activity). Kind of experiment: Reversal of senescence induced by FOXO3a siRNA in human fibroblasts (β-galactosidase, X-Gal staining). The conditions noted are these: human fibroblasts treated with FOXO3a siRNA 25 nM; peptide 1% (stock solution 40 mg/kg); 48 hours. The source says:
The objective of this study is to determine the influence of the peptide SEQ ID NO: 5 on senescent fibroblasts, of which the senescence has been induced by the extinction of the FOXO3a gene. These cells overexpress beta-galactosidase, in relation to their senescent state.
FOXO3a is a Forkhead transcription factor involved in cell longevity. In the skin, the negative regulation of FOXO3a accelerates the senescence of normal human fibroblasts (Hyun Kyoung K. et al. J. of Gerontol., 2005, vol. 60A n° 1, pages 4-9). This property was used to advantage to induce senescence in human fibroblasts by blocking FOXO3a expression by a specific interfering RNA (siRNA).
Human fibroblasts in culture are rendered senescent by treatment with a specific siRNA of FOXO3a at a final concentration of 25 nM using the Lipofectamine™ RNAiMAX (Invitrogen, Ref: 13778-075) transfection technique. Untreated controls are produced. The fibroblasts are treated in parallel by the peptide SEQ ID NO: 5 at a final concentration of 1% (using a stock solution at 40 mg/kg) for 48 hours.
The cells are rinsed and fixed in a fixation buffer (0.2% glutaraldehyde, 2% formaldehyde). The cells are then incubated at 37° C. without CO2 for 24 hours with an X-Gal solution at 1 mg/mL in 40 mM of citric acid/phosphate (pH 6), 5 mM K3FeCN6, 5 mM K4FeCN6, 150 mM NaCl and 2 mM MgCl2. […]

Where no end group is shown, it is not given here.

“Gly-Pro-Ala-Gly-Pro (GPAGP) [SEQ ID NO: 4]”: the expression of fibronectin result with fibronectin is on record as “stimulate the expression”. Also, the expression of pro-collagen entry with pro-collagen [1] was “stimulate the expression”. For the same substance, the “expression of hyaluronic acid” value in the experiment with hyaluronic acid [2] was “stimulate the expression”. Also, the “expression of collagen III” value with collagen III [3] is “stimulate the expression”. The “expression of collagen I” value in the experiment with collagen I [4] is on record as “stimulate the expression”.

For “Gly-Pro-Ala-Gly-Pro-NH2 (GPAGP-NH2) [SEQ ID NO: 5]”, the “expression of collagen I in the dermis” value with collagen I [5] is reported as “stimulates the expression”. The “expression of collagen III in the dermis” value in the experiment with collagen III [6] is recorded as “stimulates the expression”. In addition, the “expression of hyaluronic acid in the human dermis” value in the experiment on hyaluronic acid [7] (dermis) is “stimulates the expression”. Further, the “expression of hyaluronic acid in the human epidermis” value in the experiment on hyaluronic acid [7] (epidermis) was “stimulates the expression”. Moreover, the expression of fibronectin entry with fibronectin was “stimulate the expression”. Also, in the experiment with pro-collagen [1], the expression of pro-collagen result is “stimulate the expression”. In the experiment with hyaluronic acid [2], the “expression of hyaluronic acid” value is “stimulate the expression”. Besides, the “p16 immunolabeling, nuclear fluorescence (expression of the p16 senescence marker)” value in the experiment with P16 is recorded as “less intense nuclear fluorescence”. In addition, the “expression of Collagen I messenger RNAs” value in experiment [8] was “stimulates the expression”. The “expression of pro-collagen in the dermis” value with pro-collagen [9] is given as “stimulates the expression”. The “expression of collagen III” value in the experiment on collagen III [3] is “stimulate the expression”. Moreover, the “expression of collagen I” value in the experiment with collagen I [4] is recorded as “stimulate the expression”. Besides, in [10], the “β-galactosidase activity (number of cells stained blue)” value is on record as “decrease in the β-galactosidase activity”.

The values above are taken from patent publication US20140044655A1, “NOVEL ACTIVATOR PEPTIDES FOR SYNTHESIZING EXTRACELLULAR MATRIX PROTEINS, AND COSMETIC COMPOSITIONS INCLUDING SAME” (ISP INVESTMENTS INC., priority 2011, published 2014).
